Results reported in patent publication US5489580A, “Phospholipid compounds and use therefor” (University of Connecticut, priority 1992, dated 1996).
In brackets after ≈: the same amount, converted by molar mass.

Experiments:
Format in all cases: cell-based
[1] = test system: HUT 78 leukemic cell line; experiment: LDH release cytotoxicity assay, HUT 78; details: Homo sapiens, HuT78, 5×10^5 cells/mL, 10% fetal calf serum, incubation 2, 4, 8 and 24 hours, time of ID50 not given
Procedure: (§1) The compounds of the present invention were tested for their cytotoxic effects upon various leukemic cell lines. The effectiveness of each of the compounds tested was measured through assessing the leakage of the cytosolic enzyme, lactic dehydrogenase (LDH), from the leukemia cells into the media following incubation with the compound.
(§2) The LDH release assay used was a modified microtiter plate enzyme linked immunosorbent assay LDH release assay. Seven mg of each phospholipid compound to be tested was completely dissolved in separate 700 μL volumes of 100% ethanol. The ethanolic solutions were then diluted to form stock solutions by the addition of 70 mL RPMI complete medium until the concentration of phospholipid in each solution was lowered to about 100 μg/mL. An RPMI complete medium contains a RPMI 1640 medium, without red phenol, 20 mM Hepes buffer, 2 mM L-glutamine, 50 μM 2-mercaptoethanol and 20% of fetal calf serum. To form an ethanol control, a 350 μL aliquot of ethanol was added to a small glass bottle containing 35 mL of RPMI complete medium.
(§3) Each stock solution was mixed by magnetic stirring bar at room temperature for one hour and then filtered through a 0.22 μm Millipore filter, where the filter was pre-rinsed with 0.6 mL of RPMI complete medium. The stock solutions were subsequently placed in a shaker in a cold room overnight and subsequently stored in small glass bottles wrapped with aluminum foil at 4° C.
(§4) Each stock solution was shaken for 30 minutes at room temperature. Then each phospholipid stock solution was separately diluted, in small glass vials, with RPMI complete medium to form solutions with phospholipid concentrations of 80 μg, 40 μg, 20 μg and 10 μg.
(§5) For each cell line, the leukemia cells were removed from the culture flask, put into a 50 mL conical tube, centrifuged at 500 rpm for 10 minutes and then washed once with fresh RPMI 1640 medium.
(§6) Aliquots (0.4 mL) of each 100 μg, 80 μg, 40 μg, 20 μg and 10 μg phospholipid solution were added to small vials containing 0.4 mL of cell suspension to form test solutions with phospholipid concentrations of 50, 40, 20, 10 and 5 μg/mL; cell densities of 5×10^5 cells/mL; and 10% fetal calf serum in RPMI complete medium. For an ethanol control group, an aliquot of 0.4 mL of the ethanol control was mixed with 0.4 mL of cell suspension to form a control group with an ethanol concentration of 0.495% and a cell density of 5×10^5 cells/mL. For a negative control group, a 0.4 mL aliquot of RPMI complete medium was added to 0.4 mL of cell suspension to give a cell density of 5×10^5 cells/mL. For a positive control group, cell suspension was diluted with RPMI 1640 medium, which contained 10% fetal calf serum, 20 mM Hepes buffer, 2 mM L-glutamine and 2-mercaptoethanol and stored overnight at -70° C.
(§7) Aliquots (0.2 mL) of each test solution and control group were added to flat bottomed Linbro microtiter plates, in triplicate, and incubated for 2, 4, 8 and 24 hours. Following incubation, the plates were centrifuged at 500 rpm for 5 minutes. Supernatant aliquots of 0.1 mL were then transferred to separate wells on an optic-clear, flat-bottomed microtiter plate. A volume of 0.1 mL of an LDH substrate mixture, containing 5.4×10^-2 M L(+)-lactate, 6.6×10^-4 MINT, provided by Sigma Chemical Company, 2.8×10^-4 M PMS, and 1.3×10^-3M NAD in a 0.2 M Tris buffer of pH 8.2, was added to each well. A Linbro-Titertek Company Lambda microtiter plate reader was used to monitor the absorbance at 490 nm.
(§8) The cytotoxic effectiveness of each compound tested, as provided in Table I, is described in terms of the ID50 of the drug. The ID50 is the concentration of the compound tested that is required to produce a cytotoxicity that is 50% of the control's cytotoxicity.

[2] = test system: NAMALWA leukemic cell line; experiment: LDH release cytotoxicity assay, NAMALWA; details: 5×10^5 cells/mL, 10% fetal calf serum, incubation 2, 4, 8 and 24 hours, time of ID50 not given
Procedure: as §1, §2, §3, §4, §5, §6, §7, §8

CEM leukemic cell line = experiment: LDH release cytotoxicity assay, CEM; details: 5×10^5 cells/mL, 10% fetal calf serum, incubation 2, 4, 8 and 24 hours, time of ID50 not given
Procedure: as §1, §2, §3, §4, §5, §6, §7, §8

HL60 leukemic cell line = experiment: LDH release cytotoxicity assay, HL60; details: Homo sapiens, HL-60, 5×10^5 cells/mL, 10% fetal calf serum, incubation 2, 4, 8 and 24 hours, time of ID50 not given
Procedure: as §1, §2, §3, §4, §5
Aliquots (0.4 mL) of each 100 μg, 80 μg, 40 μg, 20 μg and 10 μg phospholipid solution were added to small vials containing 0.4 mL of cell suspension to form test solutions with phospholipid concentrations of 50, 40, 20, 10 and 5 μg/mL; cell densities of 5×10^5 cells/mL; and 10% fetal calf serum in RPMI complete medium. For an ethanol control group, an aliquot of 0.4 mL of the ethanol control was mixed with 0.4 mL of cell suspension to form a control group with an ethanol concentration of 0.495% and a cell density of 5×10^5 cells/mL. […]
Aliquots (0.2 mL) of each test solution and control group were added to flat bottomed Linbro microtiter plates, in triplicate, and incubated for 2, 4, 8 and 24 hours. […] A Linbro-Titertek Company Lambda microtiter plate reader was used to monitor the absorbance at 490 nm. […]

## CCCCCCCCCCCCCCCCCCOCC(COP(=O)([O-])OCC[N+]1(C)CCOCC1)OC (stereo not drawn) [2-O-Methyl-1-O-octadecylglycero-3-phospho-(β-(N-methylmorpholino))ethanol]
[1]
  IC50: 6.6 µg/mL (≈ 11.7 µM)
[2]
  IC50: 11 µg/mL (≈ 19.4 µM)
CEM leukemic cell line
  IC50: 3.6 µg/mL (≈ 6.36 µM)

## CCCCCCCCCCCCCCCCCCOCC(COP(=O)([O-])OCC[N+]1(C)CCCC1)OC (stereo not drawn) [2-O-Methyl-1-O-octadecylglycero-3-phospho-(β-(N-methylpyrrolidino))ethanol]
[1]
  IC50: 13 µg/mL (≈ 23.6 µM)
[2]
  IC50: 17.5 µg/mL (≈ 31.8 µM)
CEM leukemic cell line
  IC50: 3.4 µg/mL (≈ 6.18 µM)

## CCCCCCCCCCCCCCCCC[C@@H]1CO[C@@H](COP(=O)([O-])OCC[N+](C)(C)C)CO1 [(2R,5R)-(5-heptadecyl-1,4-dioxan-2-yl) methyloxyphosphocholine]
[2]
  IC50: 4 µg/mL (≈ 7.67 µM)
HL60 leukemic cell line
  IC50: 4 µg/mL (≈ 7.67 µM)
CEM leukemic cell line
  IC50: 4 µg/mL (≈ 7.67 µM)

## CCCCCCCCCCCCCCCCC[C@H]1CO[C@@H](COP(=O)([O-])OCC[N+](C)(C)C)CO1 [(2R,5S)-(5-heptadecyl-1,4-dioxan-2-yl)methyloxyphosphocholine]
[2]
  IC50: < 2 µg/mL
HL60 leukemic cell line
  IC50: < 2 µg/mL
CEM leukemic cell line
  IC50: < 2 µg/mL

## CCCCCCCCCCCCCCCCCCOC[C@H](COP(=O)([O-])O[C@H](C)C[N+](C)(C)C)OC [(2R,αR)-2-O-Methyl-1-O-octadecyl-sn-glycero-3-phospho-(α-methyl)choline]
[1]
  IC50: 21 µg/mL (≈ 39.1 µM)
[2]
  IC50: 22 µg/mL (≈ 40.9 µM)
CEM leukemic cell line
  IC50: 5.6 µg/mL (≈ 10.4 µM)

## CCCCCCCCCCCCCCCCCCOC[C@H](COP(=O)([O-])O[C@@H](C)C[N+](C)(C)C)OC [(2R,αS)-2-O-Methyl-1-O-octadecyl-sn-glycero-3-phospho-(α-methyl)choline]
[1]
  IC50: 15.2 µg/mL (≈ 28.3 µM)
[2]
  IC50: 21.5 µg/mL (≈ 40 µM)
CEM leukemic cell line
  IC50: 4.5 µg/mL (≈ 8.37 µM)

## CCCCCCCCCCCCCCCCCCOC[C@H](COP(=O)([O-])OC[C@@H](C)[N+](C)(C)C)OC [(2R,βR)-2-O-Methyl-1-O-octadecyl-sn-glycero-3-phospho-(β-methyl)choline]
[1]
  IC50: 11.2 µg/mL (≈ 20.8 µM)
[2]
  IC50: 13.5 µg/mL (≈ 25.1 µM)
CEM leukemic cell line
  IC50: 3.3 µg/mL (≈ 6.14 µM)

## CCCCCCCCCCCCCCCCCCOC[C@H](COP(=O)([O-])OC[C@H](C)[N+](C)(C)C)OC [(2R,βS)-2-O-Methyl-1-O-octadecyl-sn-glycero-3-phospho-(β-methyl)choline]
[1]
  IC50: 6.6 µg/mL (≈ 12.3 µM)
[2]
  IC50: 12.8 µg/mL (≈ 23.8 µM)
CEM leukemic cell line
  IC50: 2.85 µg/mL (≈ 5.3 µM)

## CCCCCCCCCCCCCCCCC[C@@H]1CO[C@H](COP(=O)([O-])OCC[N+](C)(C)C)CO1 [(2S,5R)-(5-heptadecyl-1,4-dioxan-2-yl)methyloxyphosphocholine]
[2]
  IC50: 4 µg/mL (≈ 7.67 µM)
HL60 leukemic cell line
  IC50: 4 µg/mL (≈ 7.67 µM)
CEM leukemic cell line
  IC50: 4 µg/mL (≈ 7.67 µM)

## CCCCCCCCCCCCCCCCC[C@H]1CO[C@H](COP(=O)([O-])OCC[N+](C)(C)C)CO1 [(2S,5S)-(5-heptadecyl-1,4-dioxan-2-yl)methyloxyphosphocholine]
[2]
  IC50: < 2 µg/mL
HL60 leukemic cell line
  IC50: < 2 µg/mL
CEM leukemic cell line
  IC50: < 2 µg/mL

## CCCCCCCCCCCCCCCCCCOC[C@H](COP(=O)(O)O)OC [(R)-2-O-Methyl-1-O-octadecyl-sn-glycero-3-phosphoric acid]
[1]
  IC50: 3 µg/mL (≈ 6.84 µM)
[2]
  IC50: 24 µg/mL (≈ 54.7 µM)
CEM leukemic cell line
  IC50: 2.95 µg/mL (≈ 6.73 µM)
